Results from patent US9155312B2, “Fungicidal combinations of active ingredients” (Bayer Intellectual Property GmbH, priority 2004, dated 2015).

Tested on: Erysiphe graminis f.sp. tritici
Assay: Erysiphe test (wheat)/curative
Assay type: in vivo
Settings: curative, sprayed 48 hours after inoculation, evaluation 7 days after inoculation
Procedure: Erysiphe Test (Wheat)/Curative
To prepare a suitable preparation of active compound, a commercial formulation of active compound is diluted with water to the desired concentration.
To test for curative activity, young plants were dusted with spores of Erysiphe graminis f.sp. tritici. 48 hours after the inoculation, the plants were sprayed with the preparation of active compound at the stated application rates.
The plants were placed in a greenhouse at a temperature of about 20° C. and a relative atmospheric humidity of about 80% to promote the development of mildew pustules.
Evaluation was carried out 7 days after the inoculation. 0% means an efficacy which corresponds to that of the control, whereas an efficacy of 100% means that no infection is observed.

SMILES	efficacy in % found (application rate 125 g/ha)	efficacy in % found (application rate 25 g/ha)
CO/N=C(/C1=NOCCO1)c1ccccc1Oc1ncnc(Oc2ccccc2Cl)c1F [Fluoxastrobin, fluoxastrobin]	0%	–
CCOC(=O)C1=NN(c2ccc(Cl)cc2Cl)C(C)(C(=O)OCC)C1 (stereo not drawn) [Mefenpyr, diethyl 1-(2,4-dichlorophenyl)-4,5-dihydro-5-methyl-1H-pyrazole-3,5-dicarboxylate]	–	0%
OC(Cc1ccccc1Cl)(Cn1nc[nH]c1=S)C1(Cl)CC1 (stereo not drawn) [Prothioconazole, prothioconazole]	43%	–
CCCN(CC)CC1COC2(CCC(C(C)(C)C)CC2)O1 (stereo not drawn) [Spiroxamin, spiroxamine]	0%	–
CC(C)(C)C(O)(CCc1ccc(Cl)cc1)Cn1cncn1 (stereo not drawn) [Tebuconazole, tebuconazole]	57%	–
CO/N=C(/C(=O)OC)c1ccccc1CO/N=C(\C)c1cccc(C(F)(F)F)c1 [Trifloxystrobin, trifloxystrobin]	86%	–
